Reference: PubChem BioAssay AID1963862 (Molecular Pharmacology Branch, DTP, NCI, 2024)
Values joined by “and” are separate entries in the source; they are usually repeats but may differ in a detail not shown here. Equal values may be shown once.

Tested on: KRAS patient-derived spheroids with HUVEC/MSC, viability
Experiment: Anticancer human tumor 941728-121-R-J1-PDC patient-derived lung adenocarcinoma cell line growth inhibition [KRAS2]
Conditions: for viability, T/C: stronger effect = lower value
Method in brief: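 Combination screen of spheroid viability in tumor-cell co-cultures with endothelial (HUVEC) and mesenchymal stem cell stroma. Each agent was tested in half-log dilutions, topping at clinical Cmax or at 10 microM without a known Cmax.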

[1] = curve of first compound, second compound 0.1 µM
[2] = curve of first compound, second compound 0.316 µM
[3] = curve of first compound, second compound 1 µM
[4] = curve of first compound, second compound 3.16 µM
[5] = curve of first compound, second compound 10 µM
[6] = second compound 0.1 µM, first compound 0.0316 µM
[7] = second compound 0.1 µM, first compound 0.1 µM
[8] = second compound 0.1 µM, first compound 0.316 µM
[9] = second compound 0.1 µM, first compound 1 µM
[10] = second compound 0.1 µM, first compound 3.16 µM
[11] = second compound 0.1 µM, first compound 10 µM
[12] = second compound 0.316 µM, first compound 0.0316 µM
[13] = second compound 0.316 µM, first compound 0.1 µM
[14] = second compound 0.316 µM, first compound 0.316 µM
[15] = second compound 0.316 µM, first compound 1 µM
[16] = second compound 0.316 µM, first compound 3.16 µM
[17] = second compound 0.316 µM, first compound 10 µM
[18] = second compound 1 µM, first compound 0.0316 µM
[19] = second compound 1 µM, first compound 0.1 µM
[20] = second compound 1 µM, first compound 0.316 µM
[21] = second compound 1 µM, first compound 1 µM
[22] = second compound 1 µM, first compound 3.16 µM
[23] = second compound 1 µM, first compound 10 µM
[24] = second compound 3.16 µM, first compound 0.0316 µM
[25] = second compound 3.16 µM, first compound 0.1 µM
[26] = second compound 3.16 µM, first compound 0.316 µM
[27] = second compound 3.16 µM, first compound 1 µM
[28] = second compound 3.16 µM, first compound 3.16 µM
[29] = second compound 3.16 µM, first compound 10 µM
[30] = second compound 10 µM, first compound 0.0316 µM
[31] = second compound 10 µM, first compound 0.1 µM
[32] = second compound 10 µM, first compound 0.316 µM
[33] = second compound 10 µM, first compound 1 µM
[34] = second compound 10 µM, first compound 3.16 µM
[35] = second compound 10 µM, first compound 10 µM
[36] = compound alone, run of 07/19/2021
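Note: spheroids exposed to agents for seven days before readout.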

CC1(C)CCC(CN2CCN(c3ccc(C(=O)NS(=O)(=O)c4ccc(NCC5CCOCC5)c([N+](=O)[O-])c4)c(Oc4cnc5[nH]ccc5c4)c3)CC2)=C(c2ccc(Cl)cc2)C1 + CC1OCC2(CCN(c3cnc(Sc4ccnc(N)c4Cl)c(N)n3)CC2)C1N
IC50 [1]: < 31.6 nM | IC50 [2]: < 31.6 nM | IC50 [3]: < 31.6 nM | IC50 [4]: < 31.6 nM | IC50 [5]: < 31.6 nM | viability, T/C [6]: 38.4% | viability, T/C [7]: 30.5% | viability, T/C [8]: 32.1% | viability, T/C [9]: 31.2% | viability, T/C [10]: 6.63% | viability, T/C [11]: 2.32% | viability, T/C [12]: 32.1% | viability, T/C [13]: 24.3% | viability, T/C [14]: 29% | viability, T/C [15]: 34.3% | viability, T/C [16]: 5.9% | viability, T/C [17]: 1.62% | viability, T/C [18]: 29% | viability, T/C [19]: 26.9% | viability, T/C [20]: 26.1% | viability, T/C [21]: 27.3% | viability, T/C [22]: 5.85% | viability, T/C [23]: 2.94% | viability, T/C [24]: 28.4% | viability, T/C [25]: 24.7% | viability, T/C [26]: 23.7% | viability, T/C [27]: 20.8% | viability, T/C [28]: 5.87% | viability, T/C [29]: 1.91% | viability, T/C [30]: 20.1% | viability, T/C [31]: 23.8% | viability, T/C [32]: 23.2% | viability, T/C [33]: 19.2% | viability, T/C [34]: 3.98% | viability, T/C [35]: 0.4%

CCNC(=O)CC1N=C(c2ccc(Cl)cc2)c2cc(OC)ccc2-n2c(C)nnc21 (stereo not drawn) + C=CC(=O)N1CCN(c2nc(OCC3CCCN3C)nc3c2CCN(c2cccc4cccc(C)c24)C3)CC1CC#N
IC50 (curve of first compound, second compound 0.0316 µM): < 31.6 nM | IC50 [1]: < 31.6 nM | IC50 [2]: 230 nM | IC50 [3]: < 31.6 nM | IC50 [4]: < 31.6 nM | viability, T/C (second compound 0.0316 µM, first compound 0.0316 µM): 31.2% | viability, T/C (second compound 0.0316 µM, first compound 0.1 µM): 33.5% | viability, T/C (second compound 0.0316 µM, first compound 0.316 µM): 24.4% | viability, T/C (second compound 0.0316 µM, first compound 1 µM): 20.3% | viability, T/C (second compound 0.0316 µM, first compound 3.16 µM): 16.1% | viability, T/C (second compound 0.0316 µM, first compound 10 µM): 14.9% | viability, T/C [6]: 27.5% | viability, T/C [7]: 26.7% | viability, T/C [8]: 22.2% | viability, T/C [9]: 16.4% | viability, T/C [10]: 12.3% | viability, T/C [11]: 15.4% | viability, T/C [12]: 49.5% | viability, T/C [13]: 66.1% | viability, T/C [14]: 47% | viability, T/C [15]: 39.8% | viability, T/C [16]: 33.6% | viability, T/C [17]: 33.7% | viability, T/C [18]: 27.3% | viability, T/C [19]: 28% | viability, T/C [20]: 21.1% | viability, T/C [21]: 16.2% | viability, T/C [22]: 12% | viability, T/C [23]: 10.6% | viability, T/C [24]: 1.15% | viability, T/C [25]: 1.91% | viability, T/C [26]: 0.39% | viability, T/C [27]: 1.58% | viability, T/C [28]: 0.42% | viability, T/C [29]: 0.35%

CC1(C)CCC(CN2CCN(c3ccc(C(=O)NS(=O)(=O)c4ccc(NCC5CCOCC5)c([N+](=O)[O-])c4)c(Oc4cnc5[nH]ccc5c4)c3)CC2)=C(c2ccc(Cl)cc2)C1 + COc1cc2nc(C)nc(NC(C)c3cc(N)cc(C(F)(F)F)c3)c2cc1OC1CCOC1
IC50 [1]: < 31.6 nM | IC50 [2]: < 31.6 nM | IC50 [3]: < 31.6 nM | IC50 [4]: < 31.6 nM | IC50 [5]: < 31.6 nM | viability, T/C [6]: 38.8% | viability, T/C [7]: 40.6% | viability, T/C [8]: 36.4% | viability, T/C [9]: 33.9% | viability, T/C [10]: 6.79% | viability, T/C [11]: 4.58% | viability, T/C [12]: 36.7% | viability, T/C [13]: 33% | viability, T/C [14]: 38.5% | viability, T/C [15]: 31.8% | viability, T/C [16]: 7.02% | viability, T/C [17]: 3.43% | viability, T/C [18]: 35.2% | viability, T/C [19]: 46.4% | viability, T/C [20]: 34.4% | viability, T/C [21]: 32.2% | viability, T/C [22]: 7.71% | viability, T/C [23]: 1.61% | viability, T/C [24]: 39.2% | viability, T/C [25]: 34% | viability, T/C [26]: 32.2% | viability, T/C [27]: 29.6% | viability, T/C [28]: 5.76% | viability, T/C [29]: 3.49% | viability, T/C [30]: 19.6% | viability, T/C [31]: 19.7% | viability, T/C [32]: 17.5% | viability, T/C [33]: 7.37% | viability, T/C [34]: 1.44% | viability, T/C [35]: 0.52%

CC1OCC2(CCN(c3cnc(Sc4ccnc(N)c4Cl)c(N)n3)CC2)C1N (stereo not drawn)
viability, T/C (compound 0.0316 µM): 71% and 57.9% and 63.9% | viability, T/C (compound 0.1 µM): 48.3% [middle of 19 runs] | viability, T/C (compound 0.316 µM): 38% [middle of 19 runs] | viability, T/C (compound 3.16 µM): 29.8% [middle of 20 runs] | IC50 [36]: < 100 nM | IC50 (curve of compound): 141 nM [middle of 5 runs]

CCNC(=O)CC1N=C(c2ccc(Cl)cc2)c2cc(OC)ccc2-n2c(C)nnc21 (stereo not drawn) + COc1cc2nc(C)nc(NC(C)c3cc(N)cc(C(F)(F)F)c3)c2cc1OC1CCOC1
IC50 [1]: 36.2 nM | IC50 [2]: < 31.6 nM | IC50 [3]: < 31.6 nM | IC50 [4]: < 31.6 nM | IC50 [5]: < 31.6 nM | viability, T/C [6]: 49.5% | viability, T/C [7]: 48.2% | viability, T/C [8]: 30.6% | viability, T/C [9]: 16.1% | viability, T/C [10]: 11.1% | viability, T/C [11]: 9.43% | viability, T/C [12]: 46.2% | viability, T/C [13]: 42.6% | viability, T/C [14]: 34.4% | viability, T/C [15]: 12.6% | viability, T/C [16]: 9.51% | viability, T/C [17]: 9.32% | viability, T/C [18]: 45.1% | viability, T/C [19]: 40.7% | viability, T/C [20]: 29.2% | viability, T/C [21]: 8.81% | viability, T/C [22]: 7.25% | viability, T/C [23]: 6.02% | viability, T/C [24]: 38.3% | viability, T/C [25]: 33% | viability, T/C [26]: 23.5% | viability, T/C [27]: 8.14% | viability, T/C [28]: 7.37% | viability, T/C [29]: 8.71% | viability, T/C [30]: 20.3% | viability, T/C [31]: 13.9% | viability, T/C [32]: 14.2% | viability, T/C [33]: 3.3% | viability, T/C [34]: 2.65% | viability, T/C [35]: 1.91%

COc1cc(Nc2ncc3c(n2)-c2ccc(Cl)cc2C(c2c(F)cccc2OC)=NC3)ccc1C(=O)O + C=CC(=O)N1CCN(c2nc(=O)n(-c3c(C)ccnc3C(C)C)c3nc(-c4c(O)cccc4F)c(F)cc23)C(C)C1
IC50 [1]: < 31.6 nM | IC50 [2]: < 31.6 nM | IC50 [3]: < 31.6 nM | IC50 [4]: < 31.6 nM | IC50 [5]: < 31.6 nM | viability, T/C [6]: 24.9% | viability, T/C [7]: 17.2% | viability, T/C [8]: 16% | viability, T/C [9]: 22.7% | viability, T/C [10]: 25.7% | viability, T/C [11]: 17.3% | viability, T/C [12]: 29.3% | viability, T/C [13]: 26.2% | viability, T/C [14]: 26.3% | viability, T/C [15]: 25.5% | viability, T/C [16]: 24.4% | viability, T/C [17]: 16.7% | viability, T/C [18]: 17.9% | viability, T/C [19]: 27.4% | viability, T/C [20]: 31% | viability, T/C [21]: 26.4% | viability, T/C [22]: 24.1% | viability, T/C [23]: 21% | viability, T/C [24]: 25.5% | viability, T/C [25]: 29.6% | viability, T/C [26]: 31.5% | viability, T/C [27]: 29% | viability, T/C [28]: 25.7% | viability, T/C [29]: 22.4% | viability, T/C [30]: 37% | viability, T/C [31]: 38.5% | viability, T/C [32]: 35.2% | viability, T/C [33]: 32% | viability, T/C [34]: 28.1% | viability, T/C [35]: 25.8%

CNCc1ccccc1-c1csc(C(C)Nc2nc(C)nc3cc(OC)c(OC)cc23)c1 (stereo not drawn)
viability, T/C (compound 10 µM): 0.17% [middle of 15 runs] | IC50 [36]: 112 nM [middle of 5 runs]
